# Data: US6890954B1, “Uses of 2-bromopalmitate in the treatment of autoimmune disease” (priority 1999, dated 2005)
# Key:
# Format in all cases: cell-based
# PI3K = experiment: CD3-mediated tyrosine phosphorylation of PI3K in Jurkat cells; details: 100 μM 3 hours, OKT3
# Experimental: (§1) Jurkat T cells (2×10^6−1×10^7) were centrifuged at 1,000×g for 5 minutes, rinsed with RPMI, resuspended in RPMI supplemented with 2% dialyzed FBS, 0.5% defatted BSA, and incubated with or without 100 μM 2-bromopalmitate at 8×10^5 cells/ml for 3 hours. The cells were centrifuged, washed with RPMI and resuspended in RPMI at 1×10^7−1×10^8 cells/ml. The cells were then activated with anti-CD3 OKT3 mAb (0.3 mg/ml) for 3 min at 37° C., quickly spun down, washed once with cold RPMI and once with cold STE, and lysed in RIPA Samples were solubilized in 1× sample buffer containing 5% β-mercaptoethanol and subjected to SDS-PAGE, followed by immunoblotting with anti-phosphotyrosine antibody (PY99). For analysis of specific proteins, RIPA lysates were immunoprecipitated with the specific antibodies O/N, and immunoblotted for phosphotyrosine. Alternatively, proteins were immunoprecipitated with agarose-conjugated anti phosphotyrosine antibody and blotted for the specific proteins.
# (§2) In order to identify the individual proteins whose tyrosine phosphorylation is affected by 2-bromopalmitate, lysates were immunoprecipitated with a panel of specific antibodies, and immunoblotted for phosphotyrosine. Alternatively, lysates were immunoprecipitated with an antiphosphotyrosine antibody, and blotted with antibodies to specific proteins.
# Fyn [1] = biological target: T1, Fyn (Homo sapiens, UniProt P06241); experiment: Fyn fatty acylation (IC13/IC16) in transfected Jurkat T cells; details: 100 μM, 3 hours preincubation
# T1 construct: expressed in transfected cells; host or cells: COS-1
# T1 sequence (P06241 whole entry, species assumed): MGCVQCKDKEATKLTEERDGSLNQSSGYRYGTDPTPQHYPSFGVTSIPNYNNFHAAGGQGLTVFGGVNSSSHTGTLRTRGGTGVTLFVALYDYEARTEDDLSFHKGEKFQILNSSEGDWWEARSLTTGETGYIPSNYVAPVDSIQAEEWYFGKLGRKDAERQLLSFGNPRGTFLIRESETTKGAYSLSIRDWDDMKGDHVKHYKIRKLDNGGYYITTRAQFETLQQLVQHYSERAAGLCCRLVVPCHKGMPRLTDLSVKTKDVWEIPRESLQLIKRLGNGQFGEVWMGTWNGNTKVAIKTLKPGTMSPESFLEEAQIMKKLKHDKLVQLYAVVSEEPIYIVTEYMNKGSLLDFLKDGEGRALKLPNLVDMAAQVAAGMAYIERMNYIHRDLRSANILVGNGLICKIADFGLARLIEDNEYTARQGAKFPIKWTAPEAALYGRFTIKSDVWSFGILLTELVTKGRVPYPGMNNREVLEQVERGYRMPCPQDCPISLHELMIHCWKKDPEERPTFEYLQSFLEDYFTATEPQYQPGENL
# Experimental: The syntheses of 13-[^125I]-iodotridecanoic acid (IC13)or 16-[^125I]-iodohexanoic acid (IC16) were carried out as described previously (39). Cell labeling was carried out as described (12,13) with modifications. Briefly, each 60 mm plate of Fyn transfected COS-1 cells was incubated O/N in DMEM containing 2.5% FBS, 0.5% defatted BSA (Sigma) with or without 100 μM 2-bromopalmitate or 50 μM polyunsaturated fatty acid. Prior to labeling, the cells were incubated for 1 hr with 1 ml of DMEM containing 2% dialyzed FBS, then labeled for 4 hours with 25-50 μCi IC13 or IC16 in DMEM containing 2% dialyzed FBS, 0.5% defatted BSA with or without 2-bromopalmitate or polyunsaturated fatty acid. Labeled cells were washed three times with cold STE (100 mM NaCl, 10 mM Tris pH 7.4, 1 mM EDTA) and lysed in 0.6 ml of cold RIPA buffer containing protease inhibitors (10 μg/ml each of benzamidine, AEBSF, TPCK and TLCK, 1.5 μg/ml each of Leupeptin, Pepstatin A and Aprotinin). Lysates were clarified at 100,000×g for 15 min at 4° C. in a Beckman TL-100 ultracentrifuge. […] Gels were dried between cellophane and analyzed by phosphorimaging after 12-36 hours exposure. […]
# The Src family kinases Fyn and Lck play critical roles in T cell receptor (TCR) mediated signaling. […] Total protein levels were monitored by immunoprecipitation followed by immunoblotting with anti-Fyn antibody.
# Fyn [2] = experiment: Localization of Fyn to Triton X-100 insoluble fractions in COS-1 cells; details: COS-1, 1% Triton X-100 extraction; untreated: majority detergent resistant
# Experimental: Isolation of Triton X-100 resistant and soluble fractions was carried out as described previously (12). Isolation of detergent resistant microdomains by sucrose gradients were carried out as follows (19): Jurkat cells (5×10^7) were treated with 2-bromopalmitate, activated with OKT3 mAb as described above, and lysed in 1 ml lysis buffer (25 mM MES pH 6.5, 150 mM NaCl, 0.5% Triton X-100, 1 mM Na3VO4) supplemented with protease inhibitors for 30 minutes at 0° C. After homogenizing 10 times with a loose fit Dounce homogenizer, lysates were mixed with 1 ml 85% sucrose in MBS (25 mM MES pH 6.5, 150 mM NaCl), and overlayered with 6 ml 30% sucrose in MBS, then with 4 ml 5% sucrose in MBS. Following centrifugation for 16 hours at 145,000 g in an SW40 rotor, 1 ml fractions were collected and analyzed by PAGE and immunoblotting with anti-Fyn, anti-LAT, or anti-Lck antibodies.
# Previous experiments have shown that following rapid membrane binding of newly synthesized Fyn, there is a slower partitioning of Fyn (10-20 minutes) to regions of the plasma membrane that are resistant to Triton X-100 extraction at 4° C. (12). Therefore the effect of 2-bromopalmitate on the localization of Fyn to Triton X-100 insoluble fractions was examined. Transfected COS-1 cells were left untreated or treated with 2-bromopalmitate as described above. […]
# ZAP-70 = experiment: CD3-mediated tyrosine phosphorylation of ZAP-70 in Jurkat cells; details: 100 μM 3 hours, OKT3
# Experimental: as §1, §2
# Fyn(16)-eGFP = experiment: Localization of Fyn(16)-eGFP in COS-1 cells (fluorescence microscopy, P100/S100 fractionation)
# Experimental: COS-1 cells were transfected with a Fyn(16)-eGFP construct (12) and seeded onto 25-mm glass coverslips 2 days prior to the experiment. Cells were treated overnight with or without 2 bromopalmitate as described above. Plates were washed with PBS and coverslips were mounted onto glass slides in PBS and observed with a 40× and 100×oil immersion lens on a Zeiss Axiophot 2 microscope and photographed with Kodak TMAX 400.
# To investigate the effect of 2-bromopalmitate on the intracellular localization of Fyn more precisely, COS-1 cells expressing a Fyn(16)-eGFP construct were examined by immunofluorescence. This construct contains the first 16 amino acids of Fyn fused in frame to eGFP; the chimera is targeted to the plasma membrane and detergent resistant microdomains (12). Cells were cultured with no treatment, with 2-bromopalmitate or with 2-hydroxymyristate, a known myristoylation inhibitor (40,41), as described above, and were examined live by fluorescence microscopy.
# Analysis of the subcellular localization of Fyn(16)-eGFP in the presence of 2-bromopalmitate and 2-hydroxymyristate was performed as described above for steady-state Fyn. As depicted in FIG. 2B, in the absence of treatment, 80% of Fyn(16)-eGFP Fyn was membrane bound, whereas in cells treated with 2-bromopalmitate and 2-hydroxymyristate, 65% and 78% of Fyn(16)-eGFP were cytosolic, respectively.
smiles,measurement,setting,value
CCCCCCCCCCCCCCC(Br)C(=O)O (stereo not shown) [2-bromopalmitate],PI3K phosphorylation inhibited,PI3K,50%
same,Fyn myristoylation inhibited relative to untreated controls,Fyn [1]; IC13,75%
same,Fyn palmitoylation inhibited relative to untreated controls,Fyn [1]; IC16,90%
same,Fyn association with detergent resistant vs soluble fraction,Fyn [2],mostly soluble
same,ZAP-70 phosphorylation inhibited,ZAP-70,50%
same,Fyn(16)-eGFP cytosolic,"Fyn(16)-eGFP; COS-1, 100 μM overnight, P100/S100, untreated 80% membrane bound",65%
same,Fyn(16)-eGFP distribution by fluorescence microscopy,"Fyn(16)-eGFP; COS-1 live cells, 100 μM overnight",reduced plasma membrane staining
